Laboratory results from patent US11427548B2 (Arvinas Operations, Inc., priority 2015, dated 2022).
Where two headings read alike, the source gives them in different places.

Biological target: T1, Androgen Receptor (Homo sapiens, UniProt P10275)
T1 construct: endogenous in cells; host or cells: VCaP cells
T1 sequence (P10275 1-920): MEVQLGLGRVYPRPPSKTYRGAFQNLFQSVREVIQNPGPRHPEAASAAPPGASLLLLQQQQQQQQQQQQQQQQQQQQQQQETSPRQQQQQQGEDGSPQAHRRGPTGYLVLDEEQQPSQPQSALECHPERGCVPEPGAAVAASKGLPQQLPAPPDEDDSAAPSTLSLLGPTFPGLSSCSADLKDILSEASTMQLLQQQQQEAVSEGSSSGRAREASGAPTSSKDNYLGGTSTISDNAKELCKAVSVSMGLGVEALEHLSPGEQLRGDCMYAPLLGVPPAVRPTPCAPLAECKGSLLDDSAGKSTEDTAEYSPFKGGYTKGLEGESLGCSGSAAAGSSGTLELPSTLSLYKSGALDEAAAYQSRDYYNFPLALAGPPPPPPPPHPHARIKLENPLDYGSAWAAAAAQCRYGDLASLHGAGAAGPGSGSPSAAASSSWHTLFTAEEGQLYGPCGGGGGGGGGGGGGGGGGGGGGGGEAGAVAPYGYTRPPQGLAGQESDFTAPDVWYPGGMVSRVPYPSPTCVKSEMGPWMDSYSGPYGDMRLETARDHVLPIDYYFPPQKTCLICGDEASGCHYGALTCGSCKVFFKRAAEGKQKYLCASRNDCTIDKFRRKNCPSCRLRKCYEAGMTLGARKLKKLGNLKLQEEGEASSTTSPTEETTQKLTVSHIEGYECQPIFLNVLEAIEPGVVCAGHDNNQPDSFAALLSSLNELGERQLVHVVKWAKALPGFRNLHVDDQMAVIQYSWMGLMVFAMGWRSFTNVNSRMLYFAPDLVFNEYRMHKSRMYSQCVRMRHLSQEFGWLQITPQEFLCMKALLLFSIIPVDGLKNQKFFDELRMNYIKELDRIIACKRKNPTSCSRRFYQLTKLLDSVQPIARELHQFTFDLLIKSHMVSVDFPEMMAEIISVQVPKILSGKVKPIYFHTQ
Test: Androgen Receptor ELISA assay (PathScan AR ELISA) in VCaP cells: AR degradation, Dmax and DC50
Format: cell-based
How it was run: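 After 24 h exposure of VCaP cells (charcoal-stripped serum, 0.1 nM R1881 agonist, 0.1% DMSO) to seven half-log compound concentrations, residual AR in lysates was measured by PathScan ELISA (TMB absorbance, 450 nm). Cells were plated at 30,000/well and grown at least 3 days beforehand.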

[1] = VCaP cells; Table 36; read-out: VCaP DC50
[2] = VCaP, read-out: VCaP Dmax (%), VCaP cells; Table 36
[3] = VCaP, VCaP cells; Table 36; read-out: VCaP Dmax (%)
[4] = read-out: VCaP DC50; VCaP cells; Table 36

| Compound | DC50 [1] | Dmax [2] | Dmax [3] | Dmax (VCaP, read-out: VCaP Dmax (%)) | DC50 [4] |
| --- | --- | --- | --- | --- | --- |
| Cc1ncsc1-c1ccc([C@H](C)NC(=O)[C@@H]2C[C@@H](O)CN2C(=O)[C@@H](NC(=O)COCCCCCc2ccc(C(=O)N[C@H]3C(C)(C)[C@H](Oc4ccc(C#N)c(C(F)(F)F)c4)C3(C)C)cc2)C(C)(C)C)cc1 [Example 657, (2S,4R)-1-((S)-2-(2-((5-(4-(((1r,3r)-3-(4-cyano-3-(trifluoromethyl)phenoxy)-2,2,4,4-tetramethylcyclobutyl)carbamoyl)phenyl)pentyl)oxy)acetamido)-3,3-dimethylbutanoyl)-4-hydroxy-N-((S)-1-(4-(4-methylthiazol-5-yl)phenyl)ethyl)pyrrolidine-2-carboxamide] | < 50 nM | 51 to 70% | – | – | – |
| Cc1ncsc1-c1ccc([C@H](C)NC(=O)[C@@H]2C[C@@H](O)CN2C(=O)[C@H](c2cc(OCCN3CCN(c4ccc(C(=O)N[C@H]5C(C)(C)[C@H](Oc6ccc(C#N)c(Cl)c6)C5(C)C)cn4)CC3)no2)C(C)C)cc1 [Example 658, N-((1r,3r)-3-(3-chloro-4-cyanophenoxy)-2,2,4,4-tetramethylcyclobutyl)-6-(4-(2-((5-((S)-1-((2S,4R)-4-hydroxy-2-(((S)-1-(4-(4-methylthiazol-5-yl)phenyl)ethyl)carbam-oyl)pyrrolidin-1-yl)-3-methyl-1-oxobutan-2-yl)isoxazol-3-yl)oxy)ethyl)piperazin-1-yl)nicotinamide] | > 501 nM | – | < 25% | – | – |
| Cc1ncsc1-c1ccc([C@H](C)NC(=O)[C@@H]2C[C@@H](O)CN2C(=O)[C@@H](c2cc(OCCN3CCN(c4ccc(C(=O)N[C@H]5C(C)(C)[C@H](Oc6ccc(C#N)c(Cl)c6)C5(C)C)cn4)CC3)no2)C(C)C)cc1 [Example 659, N-((1r,3r)-3-(3-chloro-4-cyanophenoxy)-2,2,4,4-tetramethylcyclobutyl)-6-(4-(2-((5-((R)-1-((2S,4R)-4-hydroxy-2-(((S)-1-(4-(4-methylthiazol-5-yl)phenyl)ethyl)carbam-oyl)pyrrolidin-1-yl)-3-methyl-1-oxobutan-2-yl)isoxazol-3-yl)oxy)ethyl)piperazin-1-yl)nicotinamide] | < 50 nM | – | > 71% | – | – |
| Cc1ncsc1-c1ccc([C@H](C)NC(=O)[C@@H]2C[C@@H](O)CN2C(=O)[C@@H](NC(=O)COCCN2CCN(c3ccc(C(=O)N[C@H]4C(C)(C)[C@H](Oc5ccc(C#N)c(Cl)c5)C4(C)C)cc3)CC2)C(C)(C)O)cc1 [Example 660, (2S,4R)-1-((S)-2-(2-(2-(4-(4-(((1r,3r)-3-(3-chloro-4-cyanophenoxy)-2,2,4,4-tetramethylcyclobutyl)carbamoyl)phenyl)piper-azin-1-yl)ethoxy)acetamido)-3-hydroxy-3-methylbutanoyl)-4-hydroxy-N-((S)-1-(4-(4-methylthiazol-5-yl)phenyl)ethyl)pyrrolidine-2-carboxamide] | > 501 nM | 26 to 50% | – | – | – |
| Cc1ncsc1-c1ccc(C(C)NC(=O)C2CC(O)CN2C(=O)C(NC(=O)COCCCOCCCCCOc2ccc(N3C(=S)N(c4ccc(C#N)c(C(F)(F)F)c4)C(=O)C3(C)C)cc2)C2COC2)cc1 (centres unmarked) [Example 661, 1-(2-(2-(3-((5-(4-(3-(4-cyano-3-(trifluoromethyl)phenyl)-5,5-dimethyl-4-oxo-2-thioxoimidazolidin-1-yl)phenoxy)pentyl)oxy)propoxy)acetamido)-2-(oxetan-3-yl)acetyl)-4-hydroxy-N-(1-(4-(4-methylthiazol-5-yl)phenyl)ethyl)pyrrolidine-2-carboxamide] | – | – | – | < 25% | > 501 nM |
| Cc1cn(-c2ccc([C@H](C)NC(=O)[C@@H]3C[C@@H](O)CN3C(=O)[C@@H](NC(=O)COCCCOCCCCCOc3ccc(N4C(=S)N(c5ccc(C#N)c(C(F)(F)F)c5)C(=O)C4(C)C)cc3)C(C)(C)C)cc2)cn1 [Example 663, (2S,4R)-1-((S)-2-(2-(3-((5-(4-(3-(4-cyano-3-(trifluoromethyl)phenyl)-5,5-dimethyl-4-oxo-2-thioxoimidazolidin-1-yl)phenoxy)pentyl)oxy)propoxy)acetamido)-3,3-dimethylbutanoyl)-4-hydroxy-N-((S)-1-(4-(4-methyl-1H-imidazol-1-yl)phenyl)ethyl)pyrrolidine-2-carboxamide] | – | – | – | < 25% | > 501 nM |
| Cc1ncsc1-c1ccc([C@H](C)NC(=O)[C@@H]2C[C@@H](O)CN2C(=O)[C@@H](NC(=O)[C@H](C)OCCN2CCN(c3ccc(C(=O)N[C@H]4C(C)(C)[C@H](Oc5ccc(C#N)c(Cl)c5)C4(C)C)cc3)CC2)C(C)(C)C)cc1 [Example 664, (2S,4R)-1-((S)-2-((S)-2-(2-(4-(4-(((1r,3r)-3-(3-chloro-4-cyanophenoxy)-2,2,4,4-tetramethylcyclobutyl)carbamoyl)phenyl)piper-azin-1-yl)ethoxy)propanamido)-3,3-dimethylbutanoyl)-4-hydroxy-N-((S)-1-(4-(4-methylthiazol-5-yl)phenyl)ethyl)pyrrolidine-2-carboxamide] | < 50 nM | 51 to 70% | – | – | – |
| Cc1ncsc1-c1ccc([C@H](C)NC(=O)[C@@H]2C[C@@H](O)CN2C(=O)[C@@H](NC(=O)CN2CCN(CCCc3ccc(C(=O)N[C@H]4C(C)(C)[C@H](Oc5ccc(C#N)c(C(F)(F)F)c5)C4(C)C)cc3)CC2)C(C)(C)C)cc1 [Example 665, (2S,4R)-1-((S)-2-(2-(4-(3-(4-(((1r,3r)-3-(4-cyano-3-(trifluoromethyl)phenoxy)-2,2,4,4-tetramethylcyclobutyl)carbamoyl)phenyl)propyl)piperazin-1-yl)acetamido)-3,3-dimethylbutanoyl)-4-hydroxy-N-((S)-1-(4-(4-methylthiazol-5-yl)phenyl)ethyl)pyrrolidine-2-carboxamide] | < 50 nM | – | 51 to 70% | – | – |
| Cc1ncsc1-c1ccc([C@H](C)NC(=O)[C@@H]2C[C@@H](O)CN2C(=O)[C@@H](NC(=O)COCCCCCNC23CC(C(=O)N[C@H]4C(C)(C)[C@H](Oc5ccc(C#N)c(Cl)c5)C4(C)C)(C2)C3)C(C)(C)C)cc1 [Example 666, (2S,4R)-1-((S)-2-(2-((5-((3-(((1r,3r)-3-(3-chloro-4-cyanophenoxy)-2,2,4,4-tetramethylcyclobutyl)carbamoyl)bicyclo[1.1.1]pentan-1-yl)amino)pentyl)oxy)acetamido)-3,3-dimethylbutanoyl)-4-hydroxy-N-((S)-1-(4-(4-methylthiazol-5-yl)phenyl)ethyl)pyrrolidine-2-carboxamide] | > 501 nM | – | 26 to 50% | – | – |
| Cc1ncsc1-c1ccc([C@H](C)NC(=O)[C@@H]2C[C@@H](O)CN2C(=O)[C@@H](NC(=O)CN2CCO[C@@H](CN3CCO[C@@H](COc4ccc(N5C(=S)N(c6ccc(C#N)c(C(F)(F)F)c6)C(=O)C5(C)C)cc4)C3)C2)C(C)(C)C)cc1 [Example 667, (2S,4R)-1-((S)-2-(2-((S)-2-(((R)-2-((4-(3-(4-cyano-3-(trifluoromethyl)phenyl)-5,5-dimethyl-4-oxo-2-thioxoimidazolidin-1-yl)phenoxy)methyl)mor-pholino)methyl)mor-pholino)acetamido)-3,3-dimethylbutanoyl)-4-hydroxy-N-((S)-1-(4-(4-methylthiazol-5-yl)phenyl)ethyl)pyrrolidine-2-carboxamide] | – | – | – | < 25% | > 501 nM |
